Test systems include LOX IMVI melanoma; NCI-H23 lung; M14 melanoma; SW-620 colon; NCI/ADR-RES ovarian; MDA-MB-435; SK-MEL-28 melanoma; SN12C renal; MALME-3M melanoma; UACC-62 melanoma.
What all share (assay): growth of human tumour cells (NCI), 48 h

Structures are written as SMILES. Several values for one entry are separate records, joined by “and”; a condition that tells them apart may be missing. Equal entries are not always repeated.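 Interpolation was linear, between the two tested concentrations surrounding the appropriate level; five concentrations were tested over 48 hours in 96-well plates. Abbreviation: GI50, concentration required for 50% inhibition of growth. The concentration for full growth arrest is given as TGI.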 A value given as a limit tells only on which side of the number the result lay.

As to `C[C@@H]1CC[C@@]2(OC1)O[C@H]1C[C@H]3[C@@H]4CC=C5C[C@@H](O[C@@H]6O[C@H](CO)[C@@H](O[C@@H]7O[C@@H](CO)[C@H](O)[C@H]7O)[C@H](O)[C@H]6O[C@@H]6O[C@@H](C)[C@H](O)[C@@H](O)[C@H]6O)CC[C@]5(C)[C@H]4CC[C@]3(C)[C@H]1[C@@H]2C`, the GI50 in the experiment on LOX IMVI melanoma is 0.332 µM; in the experiment on NCI-H23 lung, 1.58 µM; with SW-620 colon it was 0.577 µM; in the experiment with NCI/ADR-RES ovarian it was 1.43 µM; in the experiment with MDA-MB-435, 1.29 µM; in the experiment on SK-MEL-28 melanoma, 1.2 µM. In addition, the GI50 with SN12C renal is 0.481 µM; in the experiment on MALME-3M melanoma it was 0.681 µM; with UACC-62 melanoma, 0.909 µM. The TGI came out at 1.19 µM with LOX IMVI melanoma; 2.97 µM in the experiment with NCI-H23 lung; 2.07 µM in the experiment with M14 melanoma; 1.93 µM with SW-620 colon; 2.78 µM in the experiment on NCI/ADR-RES ovarian; 2.58 µM in the experiment with MDA-MB-435. The TGI in the experiment on SK-MEL-28 melanoma stood at 2.44 µM; in the experiment with SN12C renal, 1.65 µM; in the experiment with MALME-3M melanoma it was 2 µM; with UACC-62 melanoma, 2.11 µM.

As to `CC(=O)OC1CCC2(C)C(=CC(C3C=C4CC(OC(C)=O)CCC4(C)C4=C3C3CC5OC6(CCC(C)CO6)C(C)C5C3(C)CC4)C3=C2CCC2(C)C3CC3OC4(CCC(C)CO4)C(C)C32)C1` (stereo not given), the TGI with LOX IMVI melanoma stood at 30.1 µM; in the experiment on NCI-H23 lung, 27.9 µM; with M14 melanoma it was 26.9 µM; in the experiment with NCI/ADR-RES ovarian it was 37.7 µM; in the experiment on MDA-MB-435, 27.1 µM; with SK-MEL-28 melanoma it was 31.5 µM. For the same molecule, the TGI in the experiment on SN12C renal amounted to 31.9 µM; in the experiment on MALME-3M melanoma, 26.4 µM; in the experiment with UACC-62 melanoma, 26.1 µM.

For the molecule `O=c1[nH]c(-c2ccc(C(F)(F)F)cc2)nc2c1CSCC2`, the GI50 in the experiment with LOX IMVI melanoma was more than 71.1 µM; with NCI-H23 lung it was 41.9 µM; in the experiment on M14 melanoma, 68.7 µM; in the experiment on SW-620 colon, more than 100 µM; with NCI/ADR-RES ovarian, 35.8 µM; with MDA-MB-435, more than 100 µM. The GI50 in the experiment on SK-MEL-28 melanoma is 80.3 µM; with SN12C renal it was more than 100 µM; with MALME-3M melanoma, 30.9 µM; in the experiment with UACC-62 melanoma, more than 100 µM. Also, the TGI in the experiment with LOX IMVI melanoma, with NCI-H23 lung, in the experiment on M14 melanoma, with SW-620 colon, in the experiment with NCI/ADR-RES ovarian and in the experiment on MDA-MB-435 was more than 100 µM each time. Also, the TGI with SK-MEL-28 melanoma, with SN12C renal, in the experiment with MALME-3M melanoma and with UACC-62 melanoma was more than 100 µM each time.

In the case of `COc1ccc(C(O)c2cc3c(N)c(C(=O)Nc4cccc(Br)c4)sc3nc2C)cc1` (stereo not given), the GI50 was 0.154 µM in the experiment on LOX IMVI melanoma; 0.181 µM in the experiment with NCI-H23 lung; 0.0318 µM in the experiment on M14 melanoma; 0.126 µM in the experiment with SW-620 colon; 0.104 µM in the experiment with NCI/ADR-RES ovarian; 0.0202 µM with MDA-MB-435. The GI50 is 22.3 µM in the experiment with SK-MEL-28 melanoma, 0.21 µM in the experiment on SN12C renal, 0.799 µM with MALME-3M melanoma and 0.309 µM with UACC-62 melanoma. The TGI in the experiment on LOX IMVI melanoma was more than 32.4 µM; with NCI-H23 lung, more than 60.4 µM; with M14 melanoma, 14.1 µM; in the experiment with SW-620 colon it was more than 100 µM; with NCI/ADR-RES ovarian, 4.87 µM; with MDA-MB-435, 0.05 µM. In addition, the TGI with SK-MEL-28 melanoma was more than 100 µM; in the experiment on SN12C renal, more than 31.9 µM; in the experiment with MALME-3M melanoma, more than 52.7 µM; in the experiment on UACC-62 melanoma, more than 38.6 µM.

Turning to `COc1ccc(NC(=O)c2cc(OC)c(OC)c(OC)c2)cc1O`, the GI50 with LOX IMVI melanoma was 8.33 µM; in the experiment on NCI-H23 lung it was 5.32 µM; in the experiment on M14 melanoma it was 2.91 µM; in the experiment on SW-620 colon, 1.11 µM; in the experiment on NCI/ADR-RES ovarian it was 1.13 µM; in the experiment on MDA-MB-435 it was 0.241 µM. The GI50 with SK-MEL-28 melanoma was 28.1 µM; in the experiment on SN12C renal it was 7.99 µM; in the experiment on MALME-3M melanoma, 29.4 µM; with UACC-62 melanoma it was 2.66 µM. The TGI was more than 100 µM in the experiment with LOX IMVI melanoma; more than 100 µM with NCI-H23 lung; more than 100 µM in the experiment on M14 melanoma; more than 100 µM with SW-620 colon; more than 100 µM in the experiment with NCI/ADR-RES ovarian; 0.872 µM in the experiment on MDA-MB-435. In addition, the TGI in the experiment on SK-MEL-28 melanoma, with SN12C renal, in the experiment with MALME-3M melanoma and with UACC-62 melanoma was more than 100 µM throughout.

Consider `CN(C)c1ccc(/C=C/c2ccnc3ccccc23)cc1`, for which the GI50 is 4.7 µM with LOX IMVI melanoma; 3.83 µM with NCI-H23 lung; 2.55 µM in the experiment with M14 melanoma; 2.96 µM with SW-620 colon; 2.26 µM with NCI/ADR-RES ovarian; 1.36 µM in the experiment on MDA-MB-435. The GI50 is 9.01 µM in the experiment with SK-MEL-28 melanoma, 3.95 µM with SN12C renal, 11.2 µM in the experiment on MALME-3M melanoma and 3.11 µM with UACC-62 melanoma. The TGI in the experiment on LOX IMVI melanoma is > 100 µM and 19.7 µM; with NCI-H23 lung, > 100 µM and 23 µM; with M14 melanoma, > 100 µM and 12.7 µM; with SW-620 colon, more than 100 µM; with MDA-MB-435, 72.6 µM and 20.7 µM; with SK-MEL-28 melanoma, more than 100 µM. Further, the TGI was more than 100 µM in the experiment on SN12C renal; > 100 µM and 55.4 µM in the experiment on MALME-3M melanoma; > 100 µM and 29.5 µM in the experiment with UACC-62 melanoma.

Consider `FC(F)(F)c1ccc(-c2cnc(Br)nc2NC2CCCCCC2)cc1`, for which the GI50 with NCI-H23 lung is 32.9 µM; with M14 melanoma, more than 100 µM; in the experiment on SW-620 colon it was 96.7 µM; in the experiment on NCI/ADR-RES ovarian, 88.9 µM; with MDA-MB-435 it was more than 100 µM; in the experiment on SK-MEL-28 melanoma, more than 100 µM. For the same molecule, the GI50 in the experiment on SN12C renal is more than 100 µM; with MALME-3M melanoma, more than 100 µM; in the experiment on UACC-62 melanoma it was 42.6 µM. The TGI in the experiment on NCI-H23 lung, in the experiment on M14 melanoma, with SW-620 colon, in the experiment on NCI/ADR-RES ovarian, in the experiment with MDA-MB-435 and in the experiment on SK-MEL-28 melanoma was more than 100 µM in each case. Moreover, the TGI with SN12C renal, with MALME-3M melanoma and with UACC-62 melanoma was more than 100 µM in each case.

With `CN(Cc1cnc2nc(N)nc(N)c2n1)c1ccc(C(=O)NC(CCC(=O)O)C(=O)O)cc1` (stereo not given), the GI50 is 0.0372 µM in the experiment with LOX IMVI melanoma; 0.354 µM in the experiment with NCI-H23 lung; 0.0777 µM in the experiment with M14 melanoma; 0.0456 µM with SW-620 colon; 0.0722 µM in the experiment with NCI/ADR-RES ovarian; 0.0478 µM in the experiment with MDA-MB-435. In addition, the GI50 in the experiment with SK-MEL-28 melanoma is 21 µM; in the experiment on SN12C renal it was 0.0595 µM; with MALME-3M melanoma, 43 µM; in the experiment on UACC-62 melanoma it was 0.145 µM. The TGI in the experiment with LOX IMVI melanoma, with NCI-H23 lung, in the experiment on M14 melanoma, in the experiment on SW-620 colon, in the experiment with NCI/ADR-RES ovarian and with MDA-MB-435 was more than 100 µM in each case. The TGI in the experiment with SK-MEL-28 melanoma, in the experiment with SN12C renal, in the experiment with MALME-3M melanoma and in the experiment with UACC-62 melanoma was more than 100 µM throughout.

For the origin of these results see PubChem BioAssay (NCI).
